# Patent publication US20180118718A1, “Substituted Quinoxaline Derivatives” (Selvita S.A., priority 2015, published 2018)
# Counter-ions that a name gives are not always drawn.
# Molecular target: T1, Human recombinant His-tagged PFKFB3 (Homo sapiens, UniProt Q16875)
# T1 construct: His; made in house
# Assay: PFKFB3 IC50 Determination Assay (in vitro kinase assay, modified ADP-Glo system)
# Format: biochemical
# Conditions: ATP 20 μM and fructose-6-phosphate 2 μM (Km), 25 nM PFKFB3, 2 h, rt, ADP-Glo luminescence
# Method: PFKFB3 IC50 Determination Assay
# In vitro kinase assay used to determine IC50 values for tested inhibitors is based on a modified ADP-Glo™ system (Promega) and consists of two parts:
# 1. Kinase reaction—performed in optimized conditions. At this step PFKFB3 phosphorylates its substrate Fructose-6-phosphate using ATP as a source of phosphate to produce Fructose-2,6-bisphosphate and ADP. Reaction is performed at Km values for ATP and substrate using optimized buffer composition and time of the reaction. Human recombinant His-tagged PFKFB3 (PFKFB3 BATCH II SEC) with confirmed activity is produced and purified in-house. 2. Detection of ADP as a product of the reaction using ADP-Glo™ system. This part is conducted by using the commercially available kit ADP-Glo™ Kinase Assay (Promega, cat. No# V9103) according to manufacturer's instruction, modified by 5x dilutions of assay reagents (both ADP-Glo™ Reagent and Kinase Detection Solution).
# Test compounds are dissolved in DMSO and then transferred to the V-bottom 96-well plate.
# 15 μL per well of Mix 1 is transferred to assay wells of 96-well white plate. […] Total reaction volume is 30 μL per well. Samples are tested in duplicates. Final concentration of DMSO in the reaction is 6.7%. Conditions needed for performing PFKFB3 (PFKFB3 BATCH II SEC) in vitro kinase assay are given below:
# This protocol is based on Technical Bulletin, ADP-Glo™ Kinase Assay (Promega) and is adapted to 96-well plate containing 30 μL reaction mixture:
# 30 μL of 5x diluted ADP-Glo™ Reagent is added to each well of 96-well plate containing 30 μL of reaction mixture. The plate is incubated for 90 minutes on a shaker at RT. 60 μL of 5x diluted Kinase Detection Solution is added to each well of 96-well plate containing 60 μL of the solution (ratio of kinase reaction volume to ADP-Glo™ Reagent volume to Kinase Detection Solution volume is maintained at 1:1:2). Plate is incubated for 40 minutes on a shaker at RT, protected from light. Luminescence is measured in the plate reader Synergy 2 (BioTek).
# Luminescent readouts for compounds tested in 10 concentrations (routinely from 100 μM to […], […] serial dilutions) in duplicates, as well as for positive control, are first normalized to no-substrate negative control by its subtraction. In the next step, % of normalized positive control is calculated for each data point and plotted against test compound concentration:
# % of control percent of positive control normalized to no-substrate negative control Lumcpd luminescence of test compound Lumneg luminescence of no-substrate negative control Lumpos luminescence of positive control
# IC50 parameter is determined by the GraphPad Prism 5.0 software [log(inhibitor) vs. response −Variable slope (four parameters)].
# T1 sequence (Q16875 whole entry): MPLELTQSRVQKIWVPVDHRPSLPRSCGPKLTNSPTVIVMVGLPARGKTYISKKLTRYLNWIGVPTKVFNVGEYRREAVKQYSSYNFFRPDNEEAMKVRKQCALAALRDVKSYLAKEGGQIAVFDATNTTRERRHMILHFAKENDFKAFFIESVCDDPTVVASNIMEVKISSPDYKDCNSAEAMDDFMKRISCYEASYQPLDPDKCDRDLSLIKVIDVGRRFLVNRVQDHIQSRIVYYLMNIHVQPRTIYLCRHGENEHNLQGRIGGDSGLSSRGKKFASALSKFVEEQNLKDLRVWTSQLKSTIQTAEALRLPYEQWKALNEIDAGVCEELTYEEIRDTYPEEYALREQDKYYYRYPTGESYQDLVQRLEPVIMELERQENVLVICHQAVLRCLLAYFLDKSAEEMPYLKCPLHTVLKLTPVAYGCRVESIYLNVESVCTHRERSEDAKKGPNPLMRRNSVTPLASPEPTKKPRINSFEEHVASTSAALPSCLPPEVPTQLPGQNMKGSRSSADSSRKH
row,SMILES,IC50
1,"CN1CCN(c2ccncc2Nc2cc(-c3ccc4c(ccn4C)c3)c3nccnc3c2)CC1 [Example 32, 8-(1-Methyl-1H-indol-5-yl)-N-[4-(4-methylpiperazin-1-yl)pyridin-3-yl]quinoxalin-6-amine]",1 to 10 µM
2,"CS(=O)(=O)c1ccncc1Nc1cc(-c2ccc(F)cc2)c2nccnc2c1 [Example 188, 8-(4-Fluorophenyl)-N-(4-methanesulfonylpyridin-3-yl)quinoxalin-6-amine]",0.001 to 1 µM
3,"CN1CCN(c2ccncc2Nc2cc(-c3ccc4ccn(C)c4c3)c3nccnc3c2)CC1 [Example 40, 8-(1-Methyl-1H-indol-6-yl)-N-[4-(4-methylpiperazin-1-yl)pyridin-3-yl]quinoxalin-6-amine]",0.001 to 1 µM
4,"Cn1ccc2ccc(-c3cc(Nc4ccccc4C(=O)O)cc4nccnc34)cc21 [Example 178, 2-{[8-(1-Methyl-1H-indol-6-yl)quinoxalin-6-yl]amino}benzoic acid]",0.001 to 1 µM
5,"CN1CCC(NC(=O)c2ccncc2Nc2cc(-c3ccc(Br)cc3)c3nccnc3c2)C1 (centres unmarked) [Example 215, 3-{[8-(4-Bromophenyl)quinoxalin-6-yl]amino}-N-(1-methylpyrrolidin-3-yl)pyridine-4-carboxamide]",0.001 to 1 µM
6,"Cc1csc2ccc(-c3cc(Nc4cnccc4C(N)=O)cc4nccnc34)cc12 [Example 205, 3-{[8-(3-Methyl-1-benzothiophen-5-yl)quinoxalin-6-yl]amino}pyridine-4-carboxamide]",0.001 to 1 µM
7,"CC(=O)Nc1cc2cc(-c3cc(Nc4cnccc4S(C)(=O)=O)cc4nccnc34)ccc2s1 [Example 200, N-(5-{7-[(4-Methanesulfonylpyridin-3-yl)amino]quinoxalin-5-yl}-1-benzothiophen-2-yl)acetamide]",1 to 10 µM
8,"COc1ccc(C)cc1-c1cc(Nc2cnccc2S(C)(=O)=O)cc2nccnc12 [Example 74, N-(4-Methanesulfonylpyridin-3-yl)-8-(2-methoxy-5-methylphenyl)quinoxalin-6-amine]",1 to 10 µM
9,"CC(=O)N1CCN(c2ccc(S(C)(=O)=O)c(Nc3cc(-c4ccc5ccn(C)c5c4)c4nccnc4c3)c2)CC1 [Example 46, 1-[4-(4-Methanesulfonyl-3-{[8-(1-methyl-1H-indol-6-yl)quinoxalin-6-yl]amino}phenyl)piperazin-1-yl]ethan-1-one]",1 to 10 µM
10,"Cc1coc2ccc(-c3cc(Nc4cc([N+](=O)[O-])ccc4S(C)(=O)=O)cc4nccnc34)cc12 [Example 103, N-(2-methanesulfonyl-5-nitrophenyl)-8-(3-methyl-1-benzofuran-5-yl)quinoxalin-6-amine]",1 to 10 µM
11,"CS(=O)(=O)c1ccncc1Nc1cc(-c2ccc(Br)c(F)c2)c2nccnc2c1 [Example 211, 8-(4-Bromo-3-fluorophenyl)-N-(4-methanesulfonylpyridin-3-yl)quinoxalin-6-amine]",0.001 to 1 µM
12,"CCc1cccc(-c2cc(Nc3cnccc3S(C)(=O)=O)cc3nccnc23)c1 [Example 65, 8-(3-Ethylphenyl)-N-(4-methanesulfonylpyridin-3-yl)quinoxalin-6-amine]",1 to 10 µM
13,"CC(=O)N1CC(NC(=O)c2ccncc2Nc2cc(-c3ccc4scc(C)c4c3)c3nccnc3c2)C1 [Example 206, N-(1-Acetylazetidin-3-yl)-3-{[8-(3-methyl-1-benzothiophen-5-yl)quinoxalin-6-yl]amino}pyridine-4-carboxamide]",0.001 to 1 µM
14,"COc1ccc(Cl)c(-c2cc(Nc3cnccc3S(C)(=O)=O)cc3nccnc23)c1 [Example 5, 8-(2-Chloro-5-methoxyphenyl)-N-(4-methanesulfonylpyridin-3-yl)quinoxalin-6-amine]",1 to 10 µM
15,"Cn1cc(-c2ccncc2Nc2cc(-c3ccc4c(ccn4C)c3)c3nccnc3c2)cn1 [Example 31, 8-(1-Methyl-1H-indol-5-yl)-N-[4-(1-methyl-1H-pyrazol-4-yl)pyridin-3-yl]quinoxalin-6-amine]",10 to 100 µM
16,"Cn1ccc2ccc(-c3cc(Nc4ccccc4S(C)(=O)=O)cc4nccnc34)nc21 [Example 21, N-(2-Methanesulfonylphenyl)-8-{1-methyl-1H-pyrrolo[2,3-b]pyridin-6-yl}quinoxalin-6-amine trifluoroacetate]",0.001 to 1 µM
17,"Cn1ccc2ccc(-c3cc(Nc4cc(Br)ccc4S(C)(=O)=O)cc4nccnc34)cc21 [Example 10, N-(5-Bromo-2-methanesulfonylphenyl)-8-(1-methyl-1H-indol-6-yl)quinoxalin-6-amine]",0.001 to 1 µM
18,"CN(c1cc(-c2ccc3ccn(C)c3c2)c2nccnc2c1)c1cnccc1C(N)=O [Example 95, 3-{Methyl[8-(1-methyl-1H-indol-6-yl)quinoxalin-6-yl]amino}pyridine-4-carboxamide]",1 to 10 µM
19,"CS(=O)(=O)c1ccncc1Nc1cc(-c2ccc3n[nH]nc3c2)c2nccnc2c1 [Example 118, 8-(1H-1,2,3-Benzotriazol-5-yl)-N-(4-methanesulfonylpyridin-3-yl)quinoxalin-6-amine]",1 to 10 µM
20,"Cn1ccc2ccc(-c3cc(Nc4c[n+]([O-])ccc4C#N)cc4nccnc34)cc21 [Example 90, 4-Cyano-3-{[8-(1-methyl-1H-indol-6-yl)quinoxalin-6-yl]amino}pyridin-1-ium-1-olate]",1 to 10 µM
21,"Cn1ccc2ccc(-c3cc(Nc4ncncc4Br)cc4nccnc34)cc21 [Example 204, N-(5-Bromopyrimidin-4-yl)-8-(1-methyl-1H-indol-6-yl)quinoxalin-6-amine]",10 to 100 µM
22,"Cn1ccc2ccc(-c3cc(Nc4cnccc4C(=O)O)cc4nccnc34)cc21 [Example 179, 3-{[8-(1-Methyl-1H-indol-6-yl)quinoxalin-6-yl]amino}pyridine-4-carboxylic acid]",0.001 to 1 µM
23,"CS(=O)(=O)c1ccncc1Nc1cc(-c2ccc3nc(N)sc3c2)c2nccnc2c1 [Example 174, 8-(2-Amino-1,3-benzothiazol-6-yl)-N-(4-methanesulfonylpyridin-3-yl)quinoxalin-6-amine]",0.001 to 1 µM
24,"Cc1ccc(O)c(-c2cc(Nc3cnccc3S(C)(=O)=O)cc3nccnc23)c1 [Example 67, 2-{7-[(4-Methanesulfonylpyridin-3-yl)amino]quinoxalin-5-yl}-4-methylphenol]",1 to 10 µM
25,"Cc1coc2ccc(-c3cc(Nc4c[n+]([O-])ccc4S(C)(=O)=O)cc4nccnc34)cc12 [Example 72, 4-Methanesulfonyl-3-{[8-(3-methyl-1-benzofuran-5-yl)quinoxalin-6-yl]amino}pyridin-1-ium-1-olate]",0.001 to 1 µM
26,"Cc1csc2ccc(-c3cc(Nc4ccccc4S(=O)(=O)NC4CCN(C)C4)cc4nccnc34)cc12 (centres unmarked) [Example 199, 2-{[8-(3-Methyl-1-benzothiophen-5-yl)quinoxalin-6-yl]amino}-N-(1-methylpyrrolidin-3-yl)benzene-1-sulfonamide]",0.001 to 1 µM
27,"Cn1ccc2cc(-c3cc(Nc4cnccc4C(N)=O)cc4nccnc34)ccc21 [Example 29, 3-{[8-(1-Methyl-1H-indol-5-yl)quinoxalin-6-yl]amino}pyridine-4-carboxamide]",1 to 10 µM
28,"Cc1cccc(-c2cc(Nc3cnccc3S(C)(=O)=O)cc3nccnc23)c1 [Example 51, N-(4-Methanesulfonylpyridin-3-yl)-8-(3-methylphenyl)quinoxalin-6-amine]",1 to 10 µM
29,"CC(C)Oc1cccc(-c2cc(Nc3cnccc3S(C)(=O)=O)cc3nccnc23)c1 [Example 130, N-(4-Methanesulfonylpyridin-3-yl)-8-[3-(propan-2-yloxy)phenyl]quinoxalin-6-amine]",10 to 100 µM
